Patent publication US20210395327A1, “Growth Hormone-Releasing Hormone Antagonists and Uses Thereof” (United States Government As Represented By The Department …, priority 2019, published 2021)
Where two headings read alike, the source gives them in different places. Non-standard residues stand in square brackets, D forms with d. Residues, ends and D or L forms follow the SMILES beside them. *: point of attachment. Phenylacetyl(2,3,4,5,6-F5) = O=C(Cc1c(F)c(F)c(F)c(F)c1F)*; Phe(4-Cl) = N[C@@H](Cc1ccc(Cl)cc1)C(=O)O; hArg = N=C(N)NCCCC[C@H](N)C(=O)O; 12Ado = NCCCCCCCCCCCC(=O)O; Nle = CCCC[C@H](N)C(=O)O; Orn = NCCC[C@H](N)C(=O)O; Abu = CC[C@H](N)C(=O)O; PhAc = O=C(Cc1ccccc1)*; Aoc = NCCCCCCCC(=O)O

Legend:
[1] = test system: CFPAC-1 pancreatic cancer cells; test: In vitro cell viability, CFPAC-1; assay type: cell-based, human; conditions: antagonist 5 μM for 72 h, cell proliferation assay; MIA602 = 1
Procedure: (§1) The inhibitory effects of the various synthesized GHRH antagonists were tested in cell proliferation assays in various human cancer cell lines including stomach cancer (KATOIII, N87), colon cancer (HT-29), urothelial cancer (J82, RT4), pancreatic cancer (PANC-1, CFPAC-1), prostatic cancer (PC3), breast cancer (MX-1, HCC1806), ovarian cancer (SK-OV-3, OVCAR-3) and lung cancer (HCC827, H460).
(§2) Cell culture. Human cancer cell lines including pancreatic (PANC-1 and CFPAC-1), lung (HCC827 and H460), stomach (NCI-N87 and KATOIII), urothelial (J82, RT4), prostatic (PC3), breast (MX-1 and HCC 1806), colorectal (HT-29), and ovarian (SK-OV-3 and OVCAR-3) were obtained from the American Type Culture Collection (ATCC) and cultured at 37° C. in a humidified 95% air/5% CO2 atmosphere in the medium recommended by ATCC.
(§3) In vitro cell viability. Cell viability was analyzed as follows: cancer cells including pancreatic (PANC-1 and CFPAC-1), lung (HCC827 and H460), stomach (NCI-N87 and KATOIII), urothelial (J82, RT4), prostatic (PC3) and breast (MX-1 and HCC 1806), colorectal (HT-29) and ovarian (SK-OV-3 and OVCAR-3) were grown on 96 well plates to ˜60% confluence, the cells were starved for 24 h in culture medium containing 0.5% FBS. Cells were then treated with GHRH antagonists MIA602 AVR compounds at concentrations of 1, 2.5 or 5 μM, or vehicle (0.1% DMSO) in quintuplicates for 72 hours. The medium was replaced every 48 hours. Cell viability was measured using CellTiter 96 aqueous one solution kit (Promega). Inhibitory effects of tested AVR compounds in comparison to that of MIA602 are presented as inhibitory potency.
(§4) Inhibitory effects of selected AVR compounds in comparison to that of MIA602 are presented as inhibitory potency (e.g., percentage of inhibition). […] The cell lines tested including lung cancer HCC827 (FIG. 2A), pancreatic cancer CFPAC-1 (FIG. 2B), stomach cancer N87 (FIG. 2C), colon cancer HT-29 (FIG. 2D), breast cancers MX-1 and HCC1806 (FIGS. 2 E, F). Based on the results of cell proliferation assay after cancer cells were treated with antagonist at concentration of 5 μM for 72H, the relative inhibitory potency of AVR antagonists in comparison to MIA-602 is summarized in Table 3 A and B. Over 60 AVR compounds were tested in 12 cancer cell lines.
(§5) Based on the results of cell proliferation assay after cancer cells were treated with antagonist at concentration of 5 µM for 72H, * at concentration of 2 µM for 72 H.

[2] = biological target: T1, membrane GHRH-receptors on human anterior pituitary cells (Homo sapiens, UniProt Q02643); test: Receptor binding, displacement of 125I-[His1,Nle27]-hGH-RH(1-32)NH2 on human pituitary membranes
T1 construct: Human pituitary was purchased from the National Hormone and Peptide Program; tissue National Hormone and Peptide Program; host or cells: human pituitary (membrane fractions)
T1 sequence (Q02643 23-423): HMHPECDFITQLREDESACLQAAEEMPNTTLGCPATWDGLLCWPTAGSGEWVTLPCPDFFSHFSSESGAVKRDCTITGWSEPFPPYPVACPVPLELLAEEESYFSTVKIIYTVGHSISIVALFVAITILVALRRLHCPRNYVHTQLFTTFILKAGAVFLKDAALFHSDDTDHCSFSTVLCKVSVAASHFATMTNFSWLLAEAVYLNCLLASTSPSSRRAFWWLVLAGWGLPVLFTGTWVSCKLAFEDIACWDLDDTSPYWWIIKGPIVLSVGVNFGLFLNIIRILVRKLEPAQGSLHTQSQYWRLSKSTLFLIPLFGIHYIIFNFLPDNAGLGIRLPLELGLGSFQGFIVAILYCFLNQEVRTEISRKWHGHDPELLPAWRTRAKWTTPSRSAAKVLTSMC
Procedure: Receptor binding affinities in vitro. Preparation of human pituitary membrane fractions and receptor binding of analogs of GH-RH were performed (Halmos G, Rekasi Z, Szoke B, Schally A V. (1993) Receptor 3:87-97). Human pituitary was purchased from the National Hormone and Peptide Program. […] Relative affinities compared to hGH-RH(1-29)NH2 were calculated as the ratio of IC50 (dose causing 50% inhibition of specific binding to receptors) of the tested peptides to the IC50 of hGH-RH(1-29)NH2. The values were calculated from technical duplicate tubes.
Nineteen new AVR analogs of GHRH were tested in the receptor binding assay. Table 6 presents the IC50 values of GHRH antagonists to membrane GHRH-receptors binding on human anterior pituitary cells.

[3] = test system: KATOIII stomach cancer cells; test: In vitro cell viability, KATOIII; assay type: cell-based, human; conditions: antagonist 5 μM for 72 h, cell proliferation assay; MIA602 = 1
Procedure: as §1, §2, §3, §4

HCC827 lung cancer cells = test: In vitro cell viability, HCC827; assay type: cell-based, human; conditions: antagonist 5 μM for 72 h, cell proliferation assay; MIA602 = 1
Procedure: as §1, §2, §3, §4, §5

[4] = membrane receptors on human anterior pituitary cells, mean of two to three determinations, read-out: IC50

| SMILES | relative inhibitory potency in comparison to MIA-602, Pancreatic CFPAC-1 [1] | IC50 [2] [nM] | relative inhibitory potency in comparison to MIA-602, Stomach KATOIII [3] | relative inhibitory potency in comparison to MIA-602, Lung IICC827 (HCC827 lung cancer cells) | IC50 [2, 4] [nM] |
| --- | --- | --- | --- | --- | --- |
| CCCC[C@H](NC(=O)[C@@H](NC(=O)[C@H](CC(=O)O)NC(=O)[C@H](CCC(N)=O)NC(=O)[C@H](CC(C)C)NC(=O)[C@H](CC(C)C)NC(=O)[C@H](CCCCN)NC(=O)[C@H](CCCNC(=N)N)NC(=O)[C@H](C)NC(=O)[C@H](CO)NC(=O)[C@H](CC(C)C)NC(=O)[C@H](CCC(N)=O)NC(=O)[C@H](CC)NC(=O)[C@H](CC(C)C)NC(=O)[C@@H](NC(=O)[C@H](CCCCN)NC(=O)[C@H](CCCNC(=N)N)NC(=O)[C@H](Cc1ccc(OC)cc1)NC(=O)[C@H](CCCNC(=N)N)NC(=O)[C@H](CC(N)=O)NC(=O)[C@@H](NC(=O)[C@H](Cc1ccc(Cl)cc1)NC(=O)[C@@H](NC(=O)[C@H](C)NC(=O)[C@H](CC(=O)O)NC(=O)[C@@H](CCCNC(=N)N)NC(=O)[C@H](Cc1ccc(O)cc1)NC(=O)CCCCCCCCCCCNC(=O)Cc1ccccc1)[C@@H](C)CC)[C@@H](C)O)C(C)C)[C@@H](C)CC)C(=O)N[C@H](CCCNC(=N)N)C(=O)N[C@@H](CCCCNC(=N)N)C(=O)NC [AVR-234, PhAC-Ada-Tyr-DArg-Asp-Ala-Ile-Cpa-Thr-Asn-Arg-Tyr(Me)-Arg-Lys-Val-Leu-Abu-Gln-Leu-Ser-Ala-Arg-Lys-Leu-Leu-Gln-Asp-Ile-Nle-DArg-Har-NHCH3] ({PhAc-12Ado}-Y[dR]DAI[Phe(4-Cl)]TNRY(Me)RKVL[Abu]QLSARKLLQDI[Nle][dR][hArg]-NHMe) | 2.205 | 0.45 | 1.709 | 4.510 | – |
| CCCC[C@H](NC(=O)[C@@H](NC(=O)[C@H](CC(=O)O)NC(=O)[C@H](CCC(N)=O)NC(=O)[C@H](CC(C)C)NC(=O)[C@H](CC(C)C)NC(=O)[C@H](CCCCN)NC(=O)[C@H](CCCNC(=N)N)NC(=O)[C@H](C)NC(=O)[C@H](CO)NC(=O)[C@H](CC(C)C)NC(=O)[C@H](CCC(N)=O)NC(=O)[C@H](CC)NC(=O)[C@H](CC(C)C)NC(=O)[C@@H](NC(=O)[C@H](CCCCN)NC(=O)[C@H](CCCNC(=N)N)NC(=O)[C@H](Cc1ccc(OC)cc1)NC(=O)[C@H](CCCCNC(=N)N)NC(=O)[C@H](CC(N)=O)NC(=O)[C@@H](NC(=O)[C@H](Cc1ccc(Cl)cc1)NC(=O)[C@@H](NC(=O)[C@H](C)NC(=O)[C@H](CC(=O)O)NC(=O)[C@@H](CCCNC(=N)N)NC(=O)[C@H](Cc1ccc(O)cc1)NC(=O)CCCCCCCCCCCNC(=O)Cc1c(F)c(F)c(F)c(F)c1F)[C@@H](C)CC)[C@@H](C)O)C(C)C)[C@@H](C)CC)C(=O)N[C@H](CCCNC(=N)N)C(=O)N[C@@H](CCCCNC(=N)N)C(=O)NCCCCCCCC(=O)NC [AVR-322, 5FPhAC-Ada-Tyr-DArg-Asp-Ala-Ile-Cpa-Thr-Asn-Har-Tyr(Me)-Arg-Lys-Val-Leu-Abu-Gln-Leu-Ser-Ala-Arg-Lys-Leu-Leu-Gln-Asp-Ile-Nle-DArg-Har-Aoc-NHCH3] ({Phenylacetyl(2,3,4,5,6-F5)-12Ado}-Y[dR]DAI[Phe(4-Cl)]TN[hArg]Y(Me)RKVL[Abu]QLSARKLLQDI[Nle][dR][hArg][Aoc]-NHMe) | – | – | 1.296 | – | 0.25 |
| CCCC[C@H](NC(=O)[C@@H](NC(=O)[C@H](CC(=O)O)NC(=O)[C@H](CCC(N)=O)NC(=O)[C@H](CC(C)C)NC(=O)[C@H](CC(C)C)NC(=O)[C@H](CCCCN)NC(=O)[C@H](CCCNC(=N)N)NC(=O)[C@H](C)NC(=O)[C@H](CO)NC(=O)[C@H](CC(C)C)NC(=O)[C@H](CCC(N)=O)NC(=O)[C@H](CC)NC(=O)[C@H](CC(C)C)NC(=O)[C@@H](NC(=O)[C@H](CCCCN)NC(=O)[C@H](CCCNC(=N)N)NC(=O)[C@H](Cc1ccc(OC)cc1)NC(=O)[C@H](CCCCNC(=N)N)NC(=O)[C@H](CC(N)=O)NC(=O)[C@@H](NC(=O)[C@H](Cc1ccc(Cl)cc1)NC(=O)[C@@H](NC(=O)[C@H](C)NC(=O)[C@H](CC(=O)O)NC(=O)[C@@H](CCCNC(=N)N)NC(=O)[C@H](Cc1ccc(O)cc1)NC(=O)CCCCCCCCCCCNC(=O)Cc1ccccc1)[C@@H](C)CC)[C@@H](C)O)C(C)C)[C@@H](C)CC)C(=O)N[C@H](CCCNC(=N)N)C(=O)N[C@@H](CCCCNC(=N)N)C(=O)NCCCCCCCCCCCC(N)=O [AVR-332] ({PhAc-12Ado}-Y[dR]DAI[Phe(4-Cl)]TN[hArg]Y(Me)RKVL[Abu]QLSARKLLQDI[Nle][dR][hArg][12Ado]-NH2) | – | – | 1.643 | – | 0.34 |
| CCCC[C@H](NC(=O)[C@@H](NC(=O)[C@H](CC(=O)O)NC(=O)[C@H](CCC(N)=O)NC(=O)[C@H](CC(C)C)NC(=O)[C@H](CC(C)C)NC(=O)[C@H](CCCN)NC(=O)[C@H](Cc1c[nH]cn1)NC(=O)[C@H](C)NC(=O)[C@H](CO)NC(=O)[C@H](CC(C)C)NC(=O)[C@H](CCC(N)=O)NC(=O)[C@H](CC)NC(=O)[C@H](CC(C)C)NC(=O)[C@@H](NC(=O)[C@H](CCCCN)NC(=O)[C@H](CCCNC(=N)N)NC(=O)[C@H](Cc1ccc(OC)cc1)NC(=O)[C@H](CCCNC(=N)N)NC(=O)[C@H](CC(N)=O)NC(=O)[C@@H](NC(=O)[C@H](Cc1ccc(Cl)cc1)NC(=O)[C@@H](NC(=O)[C@H](C)NC(=O)[C@H](CC(=O)O)NC(=O)[C@@H](CCCNC(=N)N)NC(=O)[C@H](Cc1ccc(O)cc1)NC(=O)CCCCCCCCCCCNC(=O)Cc1c(F)c(F)c(F)c(F)c1F)[C@@H](C)CC)[C@@H](C)O)C(C)C)[C@@H](C)CC)C(=O)N[C@H](CCCNC(=N)N)C(=O)N[C@@H](CCCCNC(=N)N)C(=O)NCCCCCCCCCCCC(N)=O [AVR-620, 5FPhAC-Ada-Tyr-DArg-Asp-Ala-Ile-Cpa-Thr-Asn-Arg-Tyr(Me)-Arg-Lys-Val-Leu-Abu-Gln-Leu-Ser-Ala-His-Orn-Leu-Leu-Gln-Asp-Ile-Nle-DArg-Har-Ada-NH2] ({Phenylacetyl(2,3,4,5,6-F5)-12Ado}-Y[dR]DAI[Phe(4-Cl)]TNRY(Me)RKVL[Abu]QLSAH[Orn]LLQDI[Nle][dR][hArg][12Ado]-NH2) | 1.567 | – | 1.769 | 3.753 | 0.31 |
